Experimental data from PubChem BioAssay AID248 (DTP/NCI, 2004).
“And” between values parts separate entries of the source, which are not always exact repeats. Equal entries are not always repeated. Toxic doses and inconclusive results are not listed.

System: L1210 leukemia ip in BDF1 mice, survival T/C
Assay: NCI In Vivo Anticancer Drug Screen. Data for tumor model L1210 Leukemia (intraperitoneal) in B6D2F1 (BDF1) mice
Conditions: endpoint: mean survival time, higher = longer survival
Summary of the method: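 Transplantable tumor model; survival measured in treated vs vehicle control mice. Value = treated/control.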

[1] = dose: 100.0 mg/kg/injection, schedule: Q01DX009 (ip), vehicle: saline with Tween-80
[2] = dose: 100.0 mg/kg/injection, schedule: Q04DX002 (ip), vehicle: saline with Tween-80
[3] = dose: 200.0 mg/kg/injection, schedule: Q04DX002 (ip), vehicle: saline with Tween-80
[4] = dose: 400.0 mg/kg/injection, schedule: Q04DX002 (ip), vehicle: saline with Tween-80
[5] = dose: 100.0 mg/kg/injection, schedule: Q01DX001 (ip), vehicle: saline
[6] = dose: 200.0 mg/kg/injection, schedule: Q01DX001 (ip), vehicle: saline
[7] = dose: 100.0 mg/kg/injection, schedule: Q04DX003 (ip), vehicle: saline
[8] = dose: 200.0 mg/kg/injection, schedule: Q04DX003 (ip), vehicle: saline
[9] = dose: 400.0 mg/kg/injection, schedule: Q04DX003 (ip), vehicle: saline
[10] = dose: 100.0 mg/kg/injection, schedule: Q04DX003 (ip), vehicle: saline with Tween-80
[11] = dose: 200.0 mg/kg/injection, schedule: Q04DX003 (ip), vehicle: saline with Tween-80
[12] = dose: 400.0 mg/kg/injection, schedule: Q04DX003 (ip), vehicle: saline with Tween-80

Question: With O=C(Cc1ccccc1)NCc1ccccc1Cl as the compound, how does the T/C (dose: 25.0 mg/kg/injection, schedule: Q01DX009 (ip), vehicle: saline with Tween-80) read?
Answer: 103 % of control

Question: And the T/C (dose: 50.0 mg/kg/injection, schedule: Q01DX009 (ip), vehicle: saline with Tween-80)?
Answer: 94 % of control

Question: And the T/C [1]?
Answer: 96 % of control and 87 % of control

Question: And the T/C [2]?
Answer: 96 % of control

Question: What about the T/C (dose: 150.0 mg/kg/injection, schedule: Q01DX009 (ip), vehicle: saline with Tween-80) of the same compound?
Answer: 89 % of control

Question: What about the T/C [3] of the same compound?
Answer: 107 % of control

Question: What about the T/C (dose: 225.0 mg/kg/injection, schedule: Q01DX009 (ip), vehicle: saline with Tween-80) of the same compound?
Answer: 94 % of control

Question: What about the T/C (dose: 335.0 mg/kg/injection, schedule: Q01DX009 (ip), vehicle: saline with Tween-80) of the same compound?
Answer: 91 % of control

Question: And the T/C [4]?
Answer: 111 % of control

Question: For O=C1NCC(Nc2ccc(Cl)cc2)C(=O)N1 (stereo not drawn), which T/C (dose: 100.0 mg/kg/injection, schedule: Q01DX Z (ip), vehicle: methylcellulose (MC)) is on record?
Answer: 89 % of control

Question: And the T/C (dose: 200.0 mg/kg/injection, schedule: Q01DX Z (ip), vehicle: methylcellulose (MC))?
Answer: 92 % of control

Question: Which T/C (dose: 100.0 mg/kg/injection, schedule: Q01DX001 (ip), vehicle: carboxymethylcellulose (CMC)) does the source give for COC1OCC(OCc2ccccc2)C(OCc2ccccc2)C1OCc1ccccc1 (stereo not drawn) here?
Answer: 118 % of control

Question: And the T/C (dose: 200.0 mg/kg/injection, schedule: Q01DX001 (ip), vehicle: carboxymethylcellulose (CMC))?
Answer: 98 % of control

Question: What about the T/C (dose: 400.0 mg/kg/injection, schedule: Q01DX001 (ip), vehicle: carboxymethylcellulose (CMC)) of the same compound?
Answer: 96 % of control

Question: Which T/C [5] does the source give for COc1ccc(N(C)CC(O)CN)cc1 (stereo not drawn) here?
Answer: 108 % of control

Question: And the T/C [6]?
Answer: 104 % of control

Question: Which results are given for O=C(NCOC(c1ccccc1)c1ccccc1)c1cccnc1?
Answer: T/C [7]: 89 % of control; T/C [8]: 86 % of control; T/C [9]: 92 % of control

Question: Which results are given for COc1ccc(NC(=O)OCCN(CCOC(=O)Nc2ccc(OC)cc2)c2cccc(C)c2)cc1?
Answer: T/C [5]: 100 % of control; T/C [6]: 90 % of control; T/C (dose: 400.0 mg/kg/injection, schedule: Q01DX001 (ip), vehicle: saline): 90 % of control

Question: O=[N+]([O-])c1ccccc1CC1c2ccccc2-c2ccccc21 was tested. Which T/C [7] did it give?
Answer: 96 % of control

Question: What about the T/C [8] of the same compound?
Answer: 94 % of control

Question: What about the T/C [9] of the same compound?
Answer: 93 % of control

Question: What does the source list for OCCSc1ncc2cnccn12?
Answer: T/C (dose: 100.0 mg/kg/injection, schedule: Q01DX009 (ip), vehicle: water): 98 % of control; T/C (dose: 100.0 mg/kg/injection, schedule: Q04DX003 (ip), vehicle: water): 101 % of control; T/C (dose: 200.0 mg/kg/injection, schedule: Q01DX009 (ip), vehicle: water): 96 % of control; T/C (dose: 200.0 mg/kg/injection, schedule: Q04DX003 (ip), vehicle: water): 93 % of control; T/C (dose: 400.0 mg/kg/injection, schedule: Q01DX009 (ip), vehicle: water): 102 % of control; T/C (dose: 400.0 mg/kg/injection, schedule: Q04DX003 (ip), vehicle: water): 95 % of control

Question: With N#CC(C#N)N=Nc1ccc(Cl)cc1Cl as the compound, how does the T/C (dose: 2.5 mg/kg/injection, schedule: Q04DX002 (ip), vehicle: Klucel (hydroxypropylcellulose) (HPC)) read?
Answer: 98 % of control

Question: What about the T/C (dose: 5.0 mg/kg/injection, schedule: Q04DX002 (ip), vehicle: Klucel (hydroxypropylcellulose) (HPC)) of the same compound?
Answer: 102 % of control

Question: What about the T/C (dose: 10.0 mg/kg/injection, schedule: Q04DX002 (ip), vehicle: Klucel (hydroxypropylcellulose) (HPC)) of the same compound?
Answer: 98 % of control

Question: For COc1cc(CCC(=O)O)cc(OC)c1OC, which T/C [2] is on record?
Answer: 116 % of control

Question: What about the T/C [3] of the same compound?
Answer: 89 % of control

Question: And the T/C [4]?
Answer: 106 % of control

Question: What does the source list for COc1nccnn1?
Answer: T/C (dose: 100.0 mg/kg/injection, schedule: Q01DX001 (ip), vehicle: saline with Tween-80): 93 % of control; T/C (dose: 200.0 mg/kg/injection, schedule: Q01DX001 (ip), vehicle: saline with Tween-80): 103 % of control; T/C (dose: 400.0 mg/kg/injection, schedule: Q01DX001 (ip), vehicle: saline with Tween-80): 101 % of control

Question: For [N-]=[N+]=C1Cc2ccccc2C1=O, which T/C (dose: 100.0 mg/kg/injection, schedule: Q01DX009 (ip), vehicle: Klucel (hydroxypropylcellulose) (HPC)) is on record?
Answer: 103 % of control

Question: What about the T/C (dose: 100.0 mg/kg/injection, schedule: Q04DX003 (ip), vehicle: Klucel (hydroxypropylcellulose) (HPC)) of the same compound?
Answer: 102 % of control

Question: What about the T/C (dose: 200.0 mg/kg/injection, schedule: Q01DX009 (ip), vehicle: Klucel (hydroxypropylcellulose) (HPC)) of the same compound?
Answer: 100 % of control

Question: What about the T/C (dose: 200.0 mg/kg/injection, schedule: Q04DX003 (ip), vehicle: Klucel (hydroxypropylcellulose) (HPC)) of the same compound?
Answer: 105 % of control

Question: And the T/C (dose: 400.0 mg/kg/injection, schedule: Q04DX003 (ip), vehicle: Klucel (hydroxypropylcellulose) (HPC))?
Answer: 92 % of control

Question: Which T/C (dose: 3.75 mg/kg/injection, schedule: Q01DX015 (ip), vehicle: saline) does the source give for Nc1nncs1 here?
Answer: 103 % of control

Question: What about the T/C (dose: 7.0 mg/kg/injection, schedule: Q03HX032 (ip), vehicle: saline) of the same compound?
Answer: 107 % of control

Question: And the T/C (dose: 7.5 mg/kg/injection, schedule: Q01DX015 (ip), vehicle: saline)?
Answer: 106 % of control

Question: And the T/C (dose: 7.5 mg/kg/injection, schedule: Q01DX Z (ip), vehicle: carboxymethylcellulose (CMC))?
Answer: 96 % of control

Question: What about the T/C (dose: 11.0 mg/kg/injection, schedule: Q03HX032 (ip), vehicle: saline) of the same compound?
Answer: 119 % of control

Question: And the T/C (dose: 12.5 mg/kg/injection, schedule: Q01DX009 (ip), vehicle: saline)?
Answer: 120 % of control

Question: What about the T/C (dose: 15.0 mg/kg/injection, schedule: Q01DX015 (ip), vehicle: saline) of the same compound?
Answer: 109 % of control

Question: What about the T/C (dose: 15.0 mg/kg/injection, schedule: Q01DX Z (ip), vehicle: carboxymethylcellulose (CMC)) of the same compound?
Answer: 114 % of control

Question: And the T/C (dose: 16.0 mg/kg/injection, schedule: Q03HX032 (ip), vehicle: saline)?
Answer: 108 % of control

Question: What about the T/C (dose: 20.0 mg/kg/injection, schedule: Q01DX Z (ip), vehicle: carboxymethylcellulose (CMC)) of the same compound?
Answer: 116 % of control

Question: What about the T/C (dose: 24.0 mg/kg/injection, schedule: Q03HX032 (ip), vehicle: saline) of the same compound?
Answer: 124 % of control

Question: And the T/C (dose: 25.0 mg/kg/injection, schedule: Q01DX009 (ip), vehicle: saline)?
Answer: 106 % of control

Question: And the T/C (dose: 25.0 mg/kg/injection, schedule: Q01DX Z (ip), vehicle: carboxymethylcellulose (CMC))?
Answer: 112 % of control

Question: What about the T/C (dose: 27.0 mg/kg/injection, schedule: Q01DX015 (ip), vehicle: saline) of the same compound?
Answer: 123 % of control

Question: And the T/C (dose: 32.0 mg/kg/injection, schedule: Q01DX009 (ip), vehicle: Klucel (hydroxypropylcellulose) (HPC))?
Answer: 151 % of control

Question: And the T/C (dose: 36.0 mg/kg/injection, schedule: Q03HX032 (ip), vehicle: saline)?
Answer: 156 % of control

Question: And the T/C (dose: 50.0 mg/kg/injection, schedule: Q01DX009 (ip), vehicle: saline)?
Answer: 95 % of control

Question: And the T/C (dose: 60.0 mg/kg/injection, schedule: Q01DX015 (ip), vehicle: saline)?
Answer: 151 % of control and 165 % of control and 166 % of control

Question: And the T/C (dose: 64.0 mg/kg/injection, schedule: Q01DX009 (ip), vehicle: Klucel (hydroxypropylcellulose) (HPC))?
Answer: 94 % of control and 112 % of control

Question: What about the T/C (dose: 90.0 mg/kg/injection, schedule: Q01DX015 (ip), vehicle: saline) of the same compound?
Answer: 168 % of control

Question: What about the T/C (dose: 120.0 mg/kg/injection, schedule: Q01DX015 (ip), vehicle: saline) of the same compound?
Answer: 171 % of control

Question: And the T/C (dose: 128.0 mg/kg/injection, schedule: Q01DX009 (ip), vehicle: Klucel (hydroxypropylcellulose) (HPC))?
Answer: 88 % of control and 90 % of control

Question: And the T/C (dose: 135.0 mg/kg/injection, schedule: Q01DX015 (ip), vehicle: saline)?
Answer: 151 % of control

Question: And the T/C (dose: 240.0 mg/kg/injection, schedule: Q01DX015 (ip), vehicle: saline)?
Answer: 116 % of control

Question: What about the T/C (dose: 270.0 mg/kg/injection, schedule: Q01DX001 (ip), vehicle: saline) of the same compound?
Answer: 120 % of control

Question: What about the T/C (dose: 480.0 mg/kg/injection, schedule: Q01DX015 (ip), vehicle: saline) of the same compound?
Answer: 107 % of control

Question: And the T/C (dose: 500.0 mg/kg/injection, schedule: Q04DX003 (ip), vehicle: saline)?
Answer: 100 % of control

Question: What about the T/C (dose: 600.0 mg/kg/injection, schedule: Q01DX001 (ip), vehicle: saline) of the same compound?
Answer: 124 % of control

Question: And the T/C (dose: 1000.0 mg/kg/injection, schedule: Q04DX003 (ip), vehicle: saline)?
Answer: 163 % of control

Question: Which results are given for CC(=O)OCC(C)([N+](=O)[O-])[N+](=O)[O-]?
Answer: T/C [1]: 93 % of control; T/C [10]: 95 % of control; T/C (dose: 200.0 mg/kg/injection, schedule: Q01DX009 (ip), vehicle: saline with Tween-80): 90 % of control; T/C [11]: 101 % of control; T/C (dose: 400.0 mg/kg/injection, schedule: Q01DX009 (ip), vehicle: saline with Tween-80): 91 % of control; T/C [12]: 103 % of control

Question: Which results are given for CCC(C(=O)c1ccc(F)cc1)C(O)(C(F)(F)F)C(F)(F)F (stereo not drawn)?
Answer: T/C [10]: 104 % of control; T/C [11]: 103 % of control; T/C [12]: 101 % of control
